According to patent US9763448B2, “Fungicidal mixtures I comprising strobilurin-type fungicides” (BASF SE, priority 2013, dated 2017):
Like-named read-outs stand apart in the source and are kept apart here.

Assays:
Format in all cases: cell-based
[1] = test system: Pyricularia oryzae; settings: single compound, 7 days after inoculation, 18° C.
[2] = test system: Leptosphaeria nodorum; assay: Microtest: activity against the wheat leaf spot pathogen Leptosphaeria nodorum (MTP, absorption at 405 nm); settings: 0.004 ppm, single compound; 7 days after inoculation, 18° C.
[3] = test system: Phytophthora infestans; settings: 0.063 ppm, single compound; 7 days after inoculation, 18° C.

Row | Structure (SMILES) | Observed efficacy ([1]; 0.00025 ppm) | Observed efficacy [2] | Observed efficacy [3] | Observed efficacy ([1]; 0.016 ppm)
1 | CNC(=O)C(=N/OC)/C(C)=C\COc1ccn(-c2ccc(Cl)cc2F)n1 [I-13, (Z,2E)-5-[1-(4-chloro-2-fluoro-phenyl)pyrazol-3-yl]oxy-2-methoxyimino-N,3-dimethyl-pent-3-enamide] | 7% | 21% | 4% | –
2 | OC(Cn1cncn1)(c1ccc(Oc2ccc(Cl)cc2)cc1C(F)(F)F)C1CC1 (stereo not drawn) [II-2, 1-[4-(4-chlorophenoxy)-2-(trifluoromethyl)phenyl]-1-cyclopropyl-2-(1,2,4-triazol-1-yl)ethanol] | – | – | – | 6%
3 | CC(O)(Cn1cncn1)c1ccc(Oc2ccc(Cl)cc2)cc1C(F)(F)F (stereo not drawn) [II-6, 2-[4-(4-chlorophenoxy)-2-(trifluoromethyl)phenyl]-1-(1,2,4-triazol-1-yl)propan-2-ol] | – | 7% | 7% | –
